Measured values as given in ChEMBL document CHEMBL1132532, “Correlation of anti-HIV activity with structure: use of electrostatic potential and conformational analysis” (Bioorg Med Chem Lett, 1999).

Legend:
Assay type in all cases: functional, cell-based
Settings in all cases: Homo sapiens
[1] = tested on: MT4; assay: The compound was tested for anti HIV-activity (active) against MT-4 cell line
[2] = tested on: PBMC; assay: The compound was tested for anti HIV-activity (active) against PBM cell line
[3] = tested on: ATH-8 cell line; assay: The compound was tested for anti HIV-activity (active) against ATH8 cell line
[4] = tested on: MT2; assay: The compound was tested for anti HIV-activity (active) against MT-2 cell line

Structure (SMILES) | IC50 [1] [µM] | IC50 [3] [µM] | other results
Nc1ncnc2c1ncn2[C@@H]1O[C@H](CO)[C@H]1CO | 4 |  | 
Nc1ncnc2c1ncn2[C@@H]1CO[C@H](CO)C1 |  |  | IC50 [2]: 0.67 µM
Nc1ncnc2c1ncn2[C@@H]1C[C@H](CO)CO1 | > 200 |  | 
Nc1ncnc2c1ncn2[C@H]1C[C@@H](CO)CO1 | > 200 |  | 
Nc1ncnc2c1ncn2[C@H]1CO[C@@H](CO)C1 | 43 | 15 | 
Nc1nc(O)c2ncn(C3C=CC(CO)O3)c2n1 (stereo not drawn) |  | 0.19 | IC50 [4]: 0.19 µM
Nc1nc(O)c2ncn(C3COC(CO)C3)c2n1 (stereo not drawn) | > 200 |  | 
Nc1ccn(C2COC(CO)C2)c(=O)n1 (stereo not drawn) | > 200 |  | 
Cc1cn(C2COC(CO)C2)c(=O)[nH]c1=O (stereo not drawn) | > 200 |  | 
Cc1cn([C@H]2C[C@H](N=[N+]=[N-])[C@@H](CO)O2)c(=O)[nH]c1=O [ZIDOVUDINE] |  | 0.4 | IC50 [2]: 0.004 µM
